Test: xn = mol fraction of the nth substance listed
Settings: Liquid, Bellows volumetry

CCC [propane] + O=C=O
mass density [kg/m3]
Settings | 280 K | 320 K | 360 K | 400 K | 440 K
3000 kPa, x2 = 0.1744 | 556.31 | – | – | – | –
5000 kPa, x2 = 0.1744 | 561.89 | 482.68 | – | – | –
10000 kPa, x2 = 0.1744 | 573.48 | 508.23 | 419.87 | – | –
10000 kPa, x2 = 0.3863 | 620.48 | 530.48 | – | – | –
10000 kPa, x2 = 0.5837 | 680.55 | 547.46 | – | – | –
10000 kPa, x2 = 0.7732 | 763.91 | – | – | – | –
20000 kPa, x2 = 0.1744 | 592.16 | 539.43 | 481.41 | – | –
20000 kPa, x2 = 0.3863 | 644.94 | 577.9 | 501.31 | 416.94 | –
20000 kPa, x2 = 0.5837 | 713.25 | 623.7 | 518.21 | – | –
20000 kPa, x2 = 0.7732 | 807.46 | 683.7 | 532.45 | – | –
30000 kPa, x2 = 0.1744 | 606.51 | 560.67 | 513.49 | 463.97 | –
30000 kPa, x2 = 0.3863 | 663.74 | 606.46 | 546.54 | 484.73 | 425.58
30000 kPa, x2 = 0.5837 | 737.38 | 663.4 | 584.42 | 504.63 | –
30000 kPa, x2 = 0.7732 | 837.33 | 738.49 | 631.46 | 526.28 | –
40000 kPa, x2 = 0.1744 | 619.31 | 577.4 | 535.86 | 493.75 | 453.4
40000 kPa, x2 = 0.3863 | 678.81 | 628.01 | 576.34 | 524.65 | 475.39
40000 kPa, x2 = 0.5837 | 756.53 | 691.1 | 624.74 | 558.9 | 498.14
40000 kPa, x2 = 0.7732 | 861.06 | 775.23 | 686.69 | 600.44 | 524.14
50000 kPa, x2 = 0.1744 | 629.89 | 591.36 | 553.69 | 515.97 | 480.3
50000 kPa, x2 = 0.3863 | 691.83 | 645.47 | 599.05 | 553.29 | 510.05
50000 kPa, x2 = 0.5837 | 772.63 | 713.18 | 654.15 | 596.39 | 543.19
50000 kPa, x2 = 0.7732 | 880.32 | 803.46 | 725.46 | 650.25 | 582.81
60000 kPa, x2 = 0.1744 | 639.83 | 603.47 | 568.6 | 533.68 | 501.53
60000 kPa, x2 = 0.3863 | 703.48 | 660.15 | 617.66 | 575.8 | 536.68
60000 kPa, x2 = 0.5837 | 786.68 | 731.74 | 677.69 | 625.2 | 577.1
60000 kPa, x2 = 0.7732 | 897.67 | 826.73 | 755.67 | 687.92 | 626.71
70000 kPa, x2 = 0.1744 | 648.12 | 613.78 | 581.28 | 548.87 | 518.95
70000 kPa, x2 = 0.3863 | 713.93 | 673.05 | 633.44 | 594.51 | 558.53
70000 kPa, x2 = 0.5837 | 799.31 | 747.63 | 697.37 | 648.89 | 604.68
70000 kPa, x2 = 0.7732 | 912.73 | 846.24 | 780.83 | 718.31 | 661.78
80000 kPa, x2 = 0.1744 | 656.23 | 623.2 | 592.36 | 561.96 | 533.91
80000 kPa, x2 = 0.3863 | 723.24 | 684.45 | 647.34 | 610.56 | 576.94
80000 kPa, x2 = 0.5837 | 810.6 | 761.45 | 714.31 | 668.81 | 627.72
80000 kPa, x2 = 0.7732 | 927.24 | 863.57 | 802.2 | 743.76 | 690.97
90000 kPa, x2 = 0.1744 | 663.51 | 631.77 | 602.5 | 573.37 | 546.96
90000 kPa, x2 = 0.3863 | 732.5 | 694.88 | 659.51 | 624.68 | 592.95
90000 kPa, x2 = 0.5837 | 821.14 | 773.99 | 729.21 | 686.29 | 647.49
90000 kPa, x2 = 0.7732 | 939.34 | 879.25 | 821 | 765.81 | 715.85
100000 kPa, x2 = 0.1744 | 670.12 | 639.8 | 611.43 | 583.87 | 558.7
100000 kPa, x2 = 0.3863 | 740.27 | 704.18 | 670.54 | 637.16 | 607.11
100000 kPa, x2 = 0.5837 | 830.57 | 785.61 | 742.72 | 701.68 | 664.74
100000 kPa, x2 = 0.7732 | 951.22 | 893.05 | 837.52 | 785.16 | 737.47
120000 kPa, x2 = 0.1744 | 682.47 | 654.22 | 627.94 | 601.92 | 578.72
120000 kPa, x2 = 0.3863 | 754.61 | 721.25 | 690.06 | 658.95 | 631.24
120000 kPa, x2 = 0.5837 | 847.84 | 806 | 766.21 | 728.37 | 694.36
120000 kPa, x2 = 0.7732 | 971.86 | 917.78 | 866.62 | 818.25 | 774.63
140000 kPa, x2 = 0.1744 | 693.54 | 666.67 | 642.06 | 617.62 | 595.88
140000 kPa, x2 = 0.3863 | 767.28 | 735.96 | 706.76 | 677.58 | 651.66
140000 kPa, x2 = 0.5837 | 862.96 | 824.18 | 786.28 | 750.66 | 719.21
140000 kPa, x2 = 0.7732 | 989.75 | 939.18 | 891.18 | 845.81 | 805.33
160000 kPa, x2 = 0.1744 | 703.41 | 678.11 | 654.39 | 631.49 | 610.94
160000 kPa, x2 = 0.3863 | 779.18 | 749.2 | 721.47 | 693.82 | 669.67
160000 kPa, x2 = 0.5837 | 876.77 | 839.79 | 803.84 | 770.18 | 740.68
160000 kPa, x2 = 0.7732 | 1006.14 | 958.02 | 912.47 | 869.72 | 831.52
180000 kPa, x2 = 0.1744 | 712.71 | 688.17 | 665.89 | 643.58 | 624.2
180000 kPa, x2 = 0.3863 | 789.73 | 761.05 | 734.92 | 708.41 | 685.33
180000 kPa, x2 = 0.5837 | 889 | 853.99 | 819.85 | 787.61 | 759.39
180000 kPa, x2 = 0.7732 | 1020.76 | 975.24 | 931.8 | 890.88 | 854.41
200000 kPa, x2 = 0.1744 | 720.96 | 697.95 | 676.04 | 654.96 | 636.19
200000 kPa, x2 = 0.3863 | 799.56 | 772.24 | 746.96 | 721.61 | 699.19
200000 kPa, x2 = 0.5837 | 900.92 | 866.84 | 833.79 | 803.17 | 776.34
200000 kPa, x2 = 0.7732 | 1034.57 | 990.64 | 948.91 | 909.94 | 875.02
